Source: patent publication US20240174643A1, “SOS1 PROTEIN DEGRADERS, PHARMACEUTICAL COMPOSITIONS THEREOF, AND THEIR THERAPEUTIC APPLICATIONS” (Bio TheryX, Inc., priority 2021, published 2024)

Columns and labels:
Format in all cases: cell-based
[1] = system: SW48 (wt) cells; assay: Cell viability assay (CELLTITER-GLO), SW48 cells; conditions: Homo sapiens, 72 h, 3 days at 37° C., CELLTITER-GLO luminescence, read-out: Inhibition of Cancerous Cells IC50 (μM) SW48 (wt)
Method: (§1) AsPC-1, 1358, and SW48 cells were cultured in RPMI 1640 media supplemented with 10% fetal bovine serum, streptomycin, and penicillin. Lovo and SW480 cells were cultured in DMEM media supplemented with 10% fetal bovine serum, streptomycin, and penicillin. The cell lines were plated in their respective medium supplemented with 2.5% fetal bovine serum, streptomycin, and penicillin. All cell lines were plated in white walled 96-well plates at 2,000 cells/well or 384-well plates at 500 cells/well, except Lovo, which were plated at 4,000 or 1,000 cells/well, respectively. The cells were incubated in DMSO (control) or a compound for 3 days at 37° C. under 5% CO2. A CELLTITER-GLO® reagent (100 μL) was then added to each well. After a 10 min incubation with shaking, luminescence was measured using an ENVISION® multimode plate reader.

[2] = system: Lovo (G13D) cells; assay: Cell viability assay (CELLTITER-GLO), Lovo cells; conditions: Homo sapiens, 72 h, 3 days at 37° C., CELLTITER-GLO luminescence, read-out: Inhibition of Cancerous Cells IC50 (μM) Lovo (G13D)
Method: as §1

[3] = system: H358 (G12C) cells; assay: Cell viability assay (CELLTITER-GLO), H358 cells; conditions: Homo sapiens, NCI-H358, 72 h, 3 days at 37° C., CELLTITER-GLO luminescence, read-out: Inhibition of Cancerous Cells IC50 (μM) H358 (G12C)
Method: as §1

[4] = system: AsPC-1 (G12D) cells; assay: Cell viability assay (CELLTITER-GLO), AsPC-1 cells; conditions: Homo sapiens, ASPC1, 72 h, 3 days at 37° C., CELLTITER-GLO luminescence, read-out: Inhibition of Cancerous Cells IC50 (μM) AsPC-1 (G12D)
Method: as §1

[5] = system: SW480 (G12V) cells; assay: Cell viability assay (CELLTITER-GLO), SW480 cells; conditions: Homo sapiens, 72 h, 3 days at 37° C., CELLTITER-GLO luminescence, read-out: Inhibition of Cancerous Cells IC50 (μM) SW480 (G12V)
Method: as §1

Row | SMILES | IC50 [1] | IC50 [2] | IC50 [3] | IC50 [4] | IC50 [5]
1 | COc1cc2c(N[C@H](C)c3cccc(Br)c3)nc(C)nc2cc1OCCCCCN1CCN(C(=O)CNc2ccc(C3CCC(=O)NC3=O)cc2)CC1 (stereo partly drawn) [Compound B8, 3-(4-((2-(4-(5-((4-(((R)-1-(3-Bromophenyl)ethyl)amino)-6-methoxy-2-methyl-quinazolin-7-yl)oxy)pentyl)piperazin-1-yl)-2-oxoethyl)amino)phenyl)piperidine-2,6-dione] | 1.1 µM | 1.3 µM | 1.7 µM | 2.8 µM | 1.1 µM
2 | COc1cc2c(N[C@H](C)c3cccc(Br)c3)nc(C)nc2cc1OCCCCCCCN1CCN(C(=O)CNc2ccc3c(C4CCC(=O)NC4=O)nn(C)c3c2)CC1 (stereo partly drawn) [Compound D1, 3-(6-((2-(4-(7-((4-(((R)-1-(3-Bromophenyl)ethyl)amino)-6-methoxy-2-methyl-quinazolin-7-yl)oxy)heptyl)piperazin-1-yl)-2-oxoethyl)amino)-1-methyl-1H-indazol-3-yl)-piperidine-2,6-dione] | 1.8 µM | 1.1 µM | 2.9 µM |  | 1.4 µM
3 | COc1cc2c(N[C@H](C)c3cccc(Br)c3)nc(C)nc2cc1OCCCCCCCCCCCN1CCN(C(=O)COc2cccc(N3CCC(=O)NC3=O)c2)CC1 [Compound C6, (R)-1-(3-(2-(4-(11-((4-((1-(3-Bromophenyl)ethyl)amino)-6-methoxy-2-methyl-quinazolin-7-yl)oxy)undecyl)piperazin-1-yl)-2-oxoethoxy)phenyl)dihydropyrimidine-2,4(1H,3H)-dione] | 2.8 µM | 0.74 µM | 3.3 µM | 3.4 µM | 0.58 µM
4 | COc1cc2c(N[C@H](C)c3cccc(Br)c3)nc(C)nc2cc1OCCCCCCCCCCCN1CCN(C(=O)CNc2ccc3c(C4CCC(=O)NC4=O)nn(C)c3c2)CC1 (stereo partly drawn) [Compound D3, 3-(6-((2-(4-(11-((4-(((R)-1-(3-Bromophenyl)ethyl)amino)-6-methoxy-2-methyl-quinazolin-7-yl)oxy)undecyl)piperazin-1-yl)-2-oxoethyl)amino)-1-methyl-1H-indazol-3-yl)-piperidine-2,6-dione] | 0.48 µM | 0.64 µM | 1.4 µM |  | 0.61 µM
5 | COc1cc2c(N[C@H](C)c3cccc(Br)c3)nc(C)nc2cc1OCCCCCCCN1CCN(C(=O)COc2ccc(N3CCC(=O)NC3=O)cc2)CC1 [Compound C1, (R)-1-(4-(2-(4-(7-((4-((1-(3-Bromophenyl)ethyl)amino)-6-methoxy-2-methyl-quinazolin-7-yl)oxy)heptyl)piperazin-1-yl)-2-oxoethoxy)phenyl)dihydropyrimidine-2,4(1H,3H)-dione] | 2.2 µM | 0.69 µM | 1.9 µM | 2.3 µM | 1.7 µM
6 | COc1cc2c(N[C@H](C)c3cccc(Br)c3)nc(C)nc2cc1OCCCCCCCCCCCN1CCN(C(=O)CNc2ccc(C3CCC(=O)NC3=O)cc2)CC1 (stereo partly drawn) [Compound B6, 3-(4-((2-(4-(11-((4-(((R)-1-(3-bromophenyl)ethyl)amino)-6-methoxy-2-methyl-quinazolin-7-yl)oxy)undecyl)piperazin-1-yl)-2-oxoethyl)amino)phenyl)piperidine-2,6-dione] | 3.7 µM | 0.48 µM | 2.1 µM |  | 0.3 µM
7 | COc1cc2c(N[C@H](C)c3cccc(Br)c3)nc(C)nc2cc1OCCCCCCCCCN1CCN(C(=O)CNc2ccc(C3CCC(=O)NC3=O)cc2)CC1 (stereo partly drawn) [Compound B5, 3-(4-((2-(4-(9-((4-(((R)-1-(3-Bromophenyl)ethyl)amino)-6-methoxy-2-methyl-quinazolin-7-yl)oxy)nonyl)piperazin-1-yl)-2-oxoethyl)amino)phenyl)piperidine-2,6-dione] | 1.2 µM | 0.19 µM | 2 µM |  | 0.45 µM
8 | COc1cc2c(N[C@H](C)c3cccc(Br)c3)nc(C)nc2cc1OCCCCCCCCCN1CCN(C(=O)CNc2ccc3c(C4CCC(=O)NC4=O)nn(C)c3c2)CC1 (stereo partly drawn) [Compound D2, 3-(6-((2-(4-(9-((4-(((R)-1-(3-bromophenyl)ethyl)amino)-6-methoxy-2-methylquinazolin-7-yl)oxy)nonyl)piperazin-1-yl)-2-oxoethyl)amino)-1-methyl-1H-indazol-3-yl)piperidine-2,6-dione] | 1.2 µM | 0.55 µM | 1.7 µM |  | 0.97 µM
9 | COc1cc2c(N[C@H](C)c3cccc(Br)c3)nc(C)nc2cc1OCCCCCCCCCN1CCN(C(=O)CNc2cccc3c(C4CCC(=O)NC4=O)nn(C)c23)CC1 (stereo partly drawn) [Compound D5, 3-(7-((2-(4-(9-((4-(((R)-1-(3-Bromophenyl)ethyl)amino)-6-methoxy-2-methyl-quinazolin-7-yl)oxy)nonyl)piperazin-1-yl)-2-oxoethyl)amino)-1-methyl-1H-indazol-3-yl)-piperidine-2,6-dione] | 1.5 µM | 0.42 µM | > 10 µM |  | 0.94 µM
10 | COc1cc2c(N[C@H](C)c3cccc(Br)c3)nc(C)nc2cc1OCCCCCCCN1CCN(C(=O)CNc2ccc(C3CCC(=O)NC3=O)cc2)CC1 (stereo partly drawn) [Compound B4, 3-(4-((2-(4-(7-((4-(((R)-1-(3-bromophenyl)ethyl)amino)-6-methoxy-2-methylquinazolin-7-yl)oxy)heptyl)piperazin-1-yl)-2-oxoethyl)amino)phenyl)piperidine-2,6-dione] | 1.1 µM | 0.23 µM | 0.93 µM |  | 0.49 µM
11 | COc1cc2c(N[C@H](C)c3cccc(Br)c3)nc(C)nc2cc1OCCCCCCCCCCCN1CCN(C(=O)CNc2cccc(C3CCC(=O)NC3=O)c2)CC1 (stereo partly drawn) [Compound B3, 3-(3-((2-(4-(11-((4-(((R)-1-(3-Bromophenyl)ethyl)amino)-6-methoxy-2-methyl-quinazolin-7-yl)oxy)undecyl)piperazin-1-yl)-2-oxoethyl)amino)phenyl)piperidine-2,6-dione] | 1.7 µM | 0.55 µM | 2.9 µM |  | 0.48 µM
12 | COc1cc2c(N[C@H](C)c3cccc(Br)c3)nc(C)nc2cc1OCCCCCCCN1CCN(C(=O)CNc2cccc3c(C4CCC(=O)NC4=O)nn(C)c23)CC1 (stereo partly drawn) [Compound D4, 3-(7-((2-(4-(7-((4-(((R)-1-(3-Bromophenyl)ethyl)amino)-6-methoxy-2-methyl-quinazolin-7-yl)oxy)heptyl)piperazin-1-yl)-2-oxoethyl)amino)-1-methyl-1H-indazol-3-yl)-piperidine-2,6-dione] | 0.85 µM | 0.37 µM | 1.6 µM |  | 0.65 µM
13 | COc1cc2c(N[C@H](C)c3cccc(Br)c3)nc(C)nc2cc1OCCCCCCCN1CCN(C(=O)CNc2cccc(C3CCC(=O)NC3=O)c2)CC1 (stereo partly drawn) [Compound B1, 3-(3-((2-(4-(7-((4-(((R)-1-(3-bromophenyl)ethyl)amino)-6-methoxy-2-methylquinazolin-7-yl)oxy)heptyl)piperazin-1-yl)-2-oxoethyl)amino)phenyl)piperidine-2,6-dione] | 1.1 µM | 0.34 µM | 1.1 µM |  | 0.66 µM
14 | COc1cc2c(N[C@H](C)c3cccc(Br)c3)nc(C)nc2cc1OCCCCCCCCCCCN1CCN(C(=O)CNc2cccc3c(C4CCC(=O)NC4=O)nn(C)c23)CC1 (stereo partly drawn) [Compound D6, 3-(7-((2-(4-(11-((4-(((R)-1-(3-Bromophenyl)ethyl)amino)-6-methoxy-2-methylquinazolin-7-yl)oxy)undecyl)piperazin-1-yl)-2-oxoethyl)amino)-1-methyl-1H-indazol-3-yl)piperidine-2,6-dione] | 2.4 µM | 0.76 µM | 6.4 µM |  | 1.7 µM
